Data published in US20260176254A1, “INHIBITORS OF PROSTATE SPECIFIC MEMBRANE ANTIGEN AND USE THEREOF” (SHANGHAI SINOTAU BIOTECH. CO., LTD, priority 2023, published 2026).
Blank lines part the entries; values can stand above or below the molecule they belong to.

How the values were obtained:
LNCaP cells = experiment: Cell uptake assay of 177Lu-labeled compound; type: cell-based; conditions: for Membrane (%): cell membrane fraction; for Intracellular (%): intracellular fraction
Procedure: LNCaP (ATCC) cells were cultured in RPMI 1640 medium (Gibco) containing 10% fetal bovine serum (FBS) (Gibco), in 5% carbon dioxide (CO2), at 37.0° C. in a humidified incubator. 2×10^5 LNCaP cells/well were seeded in a 24-well plate the day before experiment. 7.4 KBq (200 nCi) of ^177Lu-labeled compound was added into each well, and then incubated in 37° C., 5% CO2 incubator for varying durations. At each time point, the supernatant, cell membrane and intracellular fractions were collected. The cell membrane fraction was recovered by incubating cells with buffer containing 50 mM glycine and 100 mM NaCl, pH 2.7 for 10 minutes at 37° C., while the intracellular fraction was recovered from cells treated with 1M NaOH. Activity of ^177Lu-labelled compound in every component was detected by gamma counter.

[1] = biological target: T1, recombinant human PSMA (rhPSMA) (Homo sapiens, UniProt Q04609); experiment: Naaladase assay (fluorescence-based Naaladase activity inhibition); type: biochemical; conditions: rhPSMA 0.4 μg/mL, substrate N-Acetyl-Asp-Glu 40 μM, 37° C. one hour
T1 construct: purchased Sino Biological
Procedure: Naaladase activity inhibition was determined using a fluorescence-based assay. Briefly, the solution containing the substrate N-Acetyl-Asp-Glu (Sigma-Aldrich) at 40 μM and the compound at concentrations from 0.15 nM to 1000 nM was mixed at equal volume with recombinant human PSMA (rhPSMA, Sino Biological) at 0.4 μg/mL, in assay buffer (50 mM HEPES, 100 mM NaCl, pH 7.5). The enzymatic reaction was proceeded by incubation at 37° C. for one hour and then stopped by heating at 95° C. for 5 minutes. A solution of 15 mM ortho-phthaldialdehyde (Sigma-Aldrich) was added to all vials and incubated for 10 min at ambient temperature. The reaction solutions were loaded onto a 96-well flat clear bottom black microplates (Corning) and read at excitation and emission wavelengths of 330 and 450 nm, respectively, using a microplate reader (Tecan). The data were analyzed by a one-site total binding regression algorithm of GraphPad Prism (GraphPad Software).

T1 sequence (Q04609 whole entry): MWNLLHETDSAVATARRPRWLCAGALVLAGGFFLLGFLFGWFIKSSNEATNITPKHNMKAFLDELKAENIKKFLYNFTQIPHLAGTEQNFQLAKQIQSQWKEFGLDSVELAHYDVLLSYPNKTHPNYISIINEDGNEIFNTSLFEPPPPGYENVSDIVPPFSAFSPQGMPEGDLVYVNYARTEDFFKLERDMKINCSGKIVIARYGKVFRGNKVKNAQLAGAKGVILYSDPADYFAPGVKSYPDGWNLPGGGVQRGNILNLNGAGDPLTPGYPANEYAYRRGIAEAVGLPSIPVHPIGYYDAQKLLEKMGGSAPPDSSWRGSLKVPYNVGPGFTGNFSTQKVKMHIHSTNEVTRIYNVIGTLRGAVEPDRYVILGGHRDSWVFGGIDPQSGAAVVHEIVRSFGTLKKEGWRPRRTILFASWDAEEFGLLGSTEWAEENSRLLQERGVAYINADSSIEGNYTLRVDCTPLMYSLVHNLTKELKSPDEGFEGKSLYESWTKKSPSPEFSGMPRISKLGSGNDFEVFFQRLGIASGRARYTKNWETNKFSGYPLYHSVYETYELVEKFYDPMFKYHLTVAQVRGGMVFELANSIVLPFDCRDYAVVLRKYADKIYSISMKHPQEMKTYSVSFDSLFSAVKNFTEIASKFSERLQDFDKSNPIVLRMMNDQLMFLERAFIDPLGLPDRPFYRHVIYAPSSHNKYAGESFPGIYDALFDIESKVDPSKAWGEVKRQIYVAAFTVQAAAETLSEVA

Structure (SMILES): O=C(O)CN1CCN(CC(=O)O)CCN(CC(=O)NCC23CCC(Nc4c(N[C@@H](Cc5c6ccccc6cc6ccccc56)C(=O)NCCCC[C@H](NC(=O)N[C@@H](CNC(=O)C(=O)O)C(=O)O)C(=O)O)c(=O)c4=O)(CC2)CC3)CCN(CC(=O)O)CC1 [E3, (4S,8S,15S)-16-(anthracen-9-yl)-15-((3,4-dioxo-2-((4-((2-(4,7,10-tris(carboxymethyl)-1,4,7,10-tetraazacyclododecan-1-yl)acetamido)methyl)bicyclo[2.2.2]octan-1-yl)amino)cyclobut-1-en-1-yl)amino)-1,6,14-trioxo-2,5,7,13-tetraazahexadecane-1,4,8-tricarboxylic acid]
Membrane (%) (LNCaP cells; 1 hr): 4.0%
Membrane (%) (LNCaP cells; 4 hr): 6.8%
Membrane (%) (LNCaP cells; 24 hr): 8.8%
Intracellular (%) (LNCaP cells; 1 hr): 14.7%
Intracellular (%) (LNCaP cells; 4 hr): 44.2%
Intracellular (%) (LNCaP cells; 24 hr): 73.3%
IC50 [1]: 1.2 nM

Structure (SMILES): O=C(O)CCC[C@H](NC(=O)N[C@@H](CCCCNC(=O)[C@H](Cc1c2ccccc2cc2ccccc12)Nc1c(NC23CCC(NC(=O)CN4CCN(CC(=O)O)CCN(CC(=O)O)CCN(CC(=O)O)CC4)(CC2)CC3)c(=O)c1=O)C(=O)O)C(=O)O [E4, (S)-2-(3-((S)-5-((S)-3-(anthracen-9-yl)-2-((3,4-dioxo-2-((4-(2-(4,7,10-tris(carboxymethyl)-1,4,7,10-tetraazacyclododecan-1-yl)acetamido)bicyclo[2.2.2]octan-1-yl)amino)cyclobut-1-en-1-yl)amino)propanamido)-1-carboxypentyl)ureido)hexanedioic acid]
Membrane (%) (LNCaP cells; 1 hr): 6.4%
Membrane (%) (LNCaP cells; 4 hr): 12.8%
Membrane (%) (LNCaP cells; 24 hr): 13.0%
Intracellular (%) (LNCaP cells; 1 hr): 7.2%
Intracellular (%) (LNCaP cells; 4 hr): 23.0%
Intracellular (%) (LNCaP cells; 24 hr): 57.4%
IC50 [1]: 1.4 nM

Structure (SMILES): O=C(O)CN1CCN(CC(=O)O)CCN(CC(=O)NC23CCC(Nc4c(N[C@@H](Cc5c6ccccc6cc6ccccc56)C(=O)NCCCC[C@H](NC(=O)N[C@@H](CNC(=O)C(=O)O)C(=O)O)C(=O)O)c(=O)c4=O)(CC2)CC3)CCN(CC(=O)O)CC1 [E8]
Membrane (%) (LNCaP cells; 1 hr): 4.8%
Membrane (%) (LNCaP cells; 4 hr): 12.8%
Membrane (%) (LNCaP cells; 24 hr): 7.3%
Intracellular (%) (LNCaP cells; 1 hr): 11.5%
Intracellular (%) (LNCaP cells; 4 hr): 39.0%
Intracellular (%) (LNCaP cells; 24 hr): 77.9%
IC50 [1]: 1.6 nM

Structure (SMILES): O=C(O)CN1CCN(CC(=O)O)CCN(Cc2nnc(C34CCC(Nc5c(N[C@@H](Cc6c7ccccc7cc7ccccc67)C(=O)NCCCC[C@H](NC(=O)N[C@@H](CNC(=O)C(=O)O)C(=O)O)C(=O)O)c(=O)c5=O)(CC3)CC4)o2)CCN(CC(=O)O)CC1 [E9]
Membrane (%) (LNCaP cells; 1 hr): 5.0%
Membrane (%) (LNCaP cells; 4 hr): 9.7%
Membrane (%) (LNCaP cells; 24 hr): 10.1%
Intracellular (%) (LNCaP cells; 1 hr): 12.4%
Intracellular (%) (LNCaP cells; 4 hr): 40.4%
Intracellular (%) (LNCaP cells; 24 hr): 72.0%
IC50 [1]: 1 nM

Structure (SMILES): O=C(O)CN1CCN(CC(=O)O)CCN(Cc2nnc([C@H]3CC[C@H](Nc4c(N[C@@H](Cc5c6ccccc6cc6ccccc56)C(=O)NCCCC[C@H](NC(=O)N[C@@H](CNC(=O)C(=O)O)C(=O)O)C(=O)O)c(=O)c4=O)CC3)o2)CCN(CC(=O)O)CC1 [E10]
Membrane (%) (LNCaP cells; 1 hr): 7.1%
Membrane (%) (LNCaP cells; 4 hr): 10.5%
Membrane (%) (LNCaP cells; 24 hr): 11.0%
Intracellular (%) (LNCaP cells; 1 hr): 16.9%
Intracellular (%) (LNCaP cells; 4 hr): 50.2%
Intracellular (%) (LNCaP cells; 24 hr): 76.7%
IC50 [1]: 1.7 nM

Structure (SMILES): O=C(O)CN1CCN(CC(=O)O)CCN(CC(=O)N[C@H]2CC[C@H](Nc3c(N[C@@H](Cc4c5ccccc5cc5ccccc45)C(=O)NCCCC[C@H](NC(=O)N[C@@H](CNC(=O)C(=O)O)C(=O)O)C(=O)O)c(=O)c3=O)CC2)CCN(CC(=O)O)CC1 [E12]
Membrane (%) (LNCaP cells; 1 hr): 11.1%
Membrane (%) (LNCaP cells; 4 hr): 18.0%
Membrane (%) (LNCaP cells; 24 hr): 12.7%
Intracellular (%) (LNCaP cells; 1 hr): 7.3%
Intracellular (%) (LNCaP cells; 4 hr): 24.3%
Intracellular (%) (LNCaP cells; 24 hr): 41.4%
IC50 [1]: 0.9 nM

Structure (SMILES): O=C(O)CCC[C@H](NC(=O)N[C@@H](CCCCNC(=O)[C@H](Cc1c2ccccc2cc2ccccc12)Nc1c(Nc2ccc3c(c2)CN(C(=O)CN2CCN(CC(=O)O)CCN(CC(=O)O)CCN(CC(=O)O)CC2)CC3)c(=O)c1=O)C(=O)O)C(=O)O [E13]
Membrane (%) (LNCaP cells; 1 hr): 8.3%
Membrane (%) (LNCaP cells; 4 hr): 13.8%
Membrane (%) (LNCaP cells; 24 hr): 7.1%
Intracellular (%) (LNCaP cells; 1 hr): 6.9%
Intracellular (%) (LNCaP cells; 4 hr): 23.0%
Intracellular (%) (LNCaP cells; 24 hr): 43.3%
IC50 [1]: 1.7 nM

Continued, in another order:

IC50 [1]: 3.3 nM
Structure (SMILES): O=C(O)CC[C@H](NC(=O)N[C@@H](CCCCNC(=O)[C@H](Cc1ccc2ccccc2c1)Nc1c(NC23CCC(CNC(=O)CN4CCN(CC(=O)O)CCN(CC(=O)O)CCN(CC(=O)O)CC4)(CC2)CC3)c(=O)c1=O)C(=O)O)C(=O)O [E1, (((S)-1-carboxy-5-((S)-2-((3,4-dioxo-2-((4-((2-(4,7,10-tris(carboxymethyl)-1,4,7,10-tetraazacyclododecan-1-yl)acetamido)methyl)bicyclo[2.2.2]octan-1-yl)amino)cyclobut-1-en-1-yl)amino)-3-(naphthalen-2-yl)propanamido)pentyl)carbamoyl)-L-glutamic acid]
Membrane (%) (LNCaP cells; 1 hr): 3.4%
Membrane (%) (LNCaP cells; 4 hr): 5.6%
Membrane (%) (LNCaP cells; 24 hr): 7.1%
Intracellular (%) (LNCaP cells; 1 hr): 3.0%
Intracellular (%) (LNCaP cells; 4 hr): 9.9%
Intracellular (%) (LNCaP cells; 24 hr): 24.8%

IC50 [1]: 1.5 nM
Structure (SMILES): O=C(O)CC[C@H](NC(=O)N[C@@H](CCCCNC(=O)[C@H](Cc1ccc2ccccc2c1)Nc1c(NC23CCC(NC(=O)CN4CCN(CC(=O)O)CCN(CC(=O)O)CCN(CC(=O)O)CC4)(CC2)CC3)c(=O)c1=O)C(=O)O)C(=O)O [E6, (((S)-1-carboxy-5-((S)-2-((3,4-dioxo-2-((4-(2-(4,7,10-tris(carboxymethyl)-1,4,7,10-tetraazacyclododecan-1-yl)acetamido)bicyclo[2.2.2]octan-1-yl)amino)cyclobut-1-en-1-yl)amino)-3-(naphthalen-2-yl)propanamido)pentyl)carbamoyl)-L-glutamic acid]
Membrane (%) (LNCaP cells; 1 hr): 6.3%
Membrane (%) (LNCaP cells; 4 hr): 10.1%
Membrane (%) (LNCaP cells; 24 hr): 11.6%
Intracellular (%) (LNCaP cells; 1 hr): 5.7%
Intracellular (%) (LNCaP cells; 4 hr): 18.9%
Intracellular (%) (LNCaP cells; 24 hr): 45.5%

IC50 [1]: 1.5 nM
Structure (SMILES): O=C(O)CN1CCN(CC(=O)O)CCN(CC(=O)NC23CCC(Nc4c(N[C@@H](Cc5ccc6ccccc6c5)C(=O)NCCCC[C@H](NC(=O)N[C@@H](CNC(=O)C(=O)O)C(=O)O)C(=O)O)c(=O)c4=O)(CC2)CC3)CCN(CC(=O)O)CC1 [E21, (4S,8S,15S)-15-((3,4-dioxo-2-((4-(2-(4,7,10-tris(carboxymethyl)-1,4,7,10-tetraazacyclododecan-1-yl)acetamido)bicyclo[2.2.2]octan-1-yl)amino)cyclobut-1-en-1-yl)amino)-16-(naphthalen-2-yl)-1,6,14-trioxo-2,5,7,13-tetraazahexadecane-1,4,8-tricarboxylic acid]

IC50 [1]: 4.9 nM
Structure (SMILES): O=C(O)CN1CCN(CC(=O)O)CCN(CC(=O)NC23CCC(Nc4cc(N[C@@H](Cc5c6ccccc6cc6ccccc56)C(=O)NCCCC[C@H](NC(=O)N[C@@H](CNC(=O)C(=O)O)C(=O)O)C(=O)O)ncn4)(CC2)CC3)CCN(CC(=O)O)CC1 [E22, (4S,8S,15S)-16-(anthracen-9-yl)-1,6,14-trioxo-15-((6-((4-(2-(4,7,10-tris(carboxymethyl)-1,4,7,10-tetraazacyclododecan-1-yl)acetamido)bicyclo[2.2.2]octan-1-yl)amino)pyrimidin-4-yl)amino)-2,5,7,13-tetraazahexadecane-1,4,8-tricarboxylic acid]

IC50 [1]: 8.6 nM
Structure (SMILES): O=C(O)CC[C@H](NC(=O)N[C@@H](CCCCNC(=O)[C@H](Cc1ccc2ccccc2c1)Nc1cc(NC23CCC(NC(=O)CN4CCN(CC(=O)O)CCN(CC(=O)O)CCN(CC(=O)O)CC4)(CC2)CC3)ncn1)C(=O)O)C(=O)O [E24]

IC50 [1]: 23.1 nM
Structure (SMILES): COc1nc(N[C@@H](Cc2ccc3ccccc3c2)C(=O)NCCCC[C@H](NC(=O)N[C@@H](CCC(=O)O)C(=O)O)C(=O)O)cc(NC23CCC(NC(=O)CN4CCN(CC(=O)O)CCN(CC(=O)O)CCN(CC(=O)O)CC4)(CC2)CC3)n1 [E25]

IC50 [1]: 9.5 nM
Structure (SMILES): O=C(O)CN1CCN(CC(=O)O)CCN(CC(=O)NC23CCC(Nc4nnc(N[C@@H](Cc5c6ccccc6cc6ccccc56)C(=O)NCCCC[C@H](NC(=O)N[C@@H](CNC(=O)C(=O)O)C(=O)O)C(=O)O)s4)(CC2)CC3)CCN(CC(=O)O)CC1 [E26]

IC50 [1]: 26.6 nM
Structure (SMILES): O=C(O)CC[C@H](NC(=O)N[C@@H](CCCCNC(=O)[C@H](Cc1ccc2ccccc2c1)Nc1nc(O)nc(NC23CCC(NC(=O)CN4CCN(CC(=O)O)CCN(CC(=O)O)CCN(CC(=O)O)CC4)(CC2)CC3)n1)C(=O)O)C(=O)O [E27]

IC50 [1]: 2.1 nM
Structure (SMILES): O=C(O)CC[C@H](NC(=O)N[C@@H](CCCCNC(=O)[C@H](Cc1ccc2ccccc2c1)Nc1c(NC23CCC(c4nnc(CN5CCN(CC(=O)O)CCN(CC(=O)O)CCN(CC(=O)O)CC5)o4)(CC2)CC3)c(=O)c1=O)C(=O)O)C(=O)O [E28]
